Assay results as given in article PMC10454728, “A Comparative Study on the Lysosomal Cation Channel TMEM175 Using Automated Whole-Cell Patch-Clamp, Lysosomal Patch-Clamp, and Solid Supported Membrane-Based Electrophysiology: Functional Characterization and High-Throughput Screening Assay Development” (International Journal of Molecular Sciences, 2023).

Legend:
[1] = molecular target: T1, TMEM175 (Homo sapiens, UniProt Q9BSA9); test: Whole-cell automated patch-clamp (APC) Cs+ flux assay, SyncroPatch 384i, HEK293 overexpressing TMEM175; format: cell-based; settings: 50 µM, at +100 mV, Figure 7F
T1 sequence (Q9BSA9 1-504): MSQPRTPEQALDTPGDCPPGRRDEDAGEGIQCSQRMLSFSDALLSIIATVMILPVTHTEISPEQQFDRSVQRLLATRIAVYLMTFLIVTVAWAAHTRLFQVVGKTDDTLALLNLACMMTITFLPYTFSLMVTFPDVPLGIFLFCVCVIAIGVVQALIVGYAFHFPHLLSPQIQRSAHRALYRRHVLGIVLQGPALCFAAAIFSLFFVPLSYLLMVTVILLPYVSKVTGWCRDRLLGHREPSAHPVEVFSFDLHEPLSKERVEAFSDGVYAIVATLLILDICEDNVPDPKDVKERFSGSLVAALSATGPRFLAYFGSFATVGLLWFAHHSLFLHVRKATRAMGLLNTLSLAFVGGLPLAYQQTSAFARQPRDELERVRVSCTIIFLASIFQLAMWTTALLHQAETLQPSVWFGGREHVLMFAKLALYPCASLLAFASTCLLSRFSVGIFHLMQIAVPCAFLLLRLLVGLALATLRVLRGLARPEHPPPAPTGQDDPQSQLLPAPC

[2] = tested on: control lysosomes expressing endogenous TMEM175; test: SSME off-target compound effects on control lysosomes (SURFE2R 96SE); format: biochemical, human
Source text: ; (A) Dose-response curves for SC-79; (B) Dose-response curves for cluster 1 compounds showing similar effects with all three technologies; (C) Dose-response curves for cluster 2 compounds showing no activity in LPC, but higher activity in APC; (D) Dose-response curves for cluster 3 compounds showing high activity in LPC, but lower activity in APC; For all assay technologies, datapoints were normalized to the current recorded before compound addition and averaged across at least N = 3 individual experiments. For clarity reasons, the SEM is not shown; the average relative SEM after averaging datapoints recorded with two highest compound concentrations is 35.6% for LPC data and 2.9% for SSME data. The APC data were acquired using a voltage application protocol distinct from the one depicted in Figure 7B, as described in the Methods section. Datasets were not corrected for artifacts (as observed in SSME) or off-target compound effects. For SSME data, we indicate the difference in the peak current when applying the four highest concentrations of a compound to control lysosomes (to assess off-target effects) compared to the current recorded with TMEM175 lysosomes prior to compound addition. […] Considerable off-target compound effects are observed when the given percentage approaches the percentage of enhancement recorded with the TMEM175 sample at the given compound concentration. […] . When an EC50 value was determined from the fit, it is highlighted by a vertical dotted line. […]
We also investigated the effect of the eight test compounds on the artifact currents recorded with control lysosomes using the SURFE^2R 96SE.
Artifact currents are typically in the range of −1 nA, while TMEM175 sample currents are +4 nA (Figure 1K). […] This corresponds to 3% to 30% of the current recorded with the TMEM175 sample in the absence of the compound. […]
a. For each single well, we performed an in-well normalization: the artifact corrected peak current obtained using a given condition is devided by the artifact corrected reference peak current recorded within the same well. b. […]

CCOC(=O)C1=C(N)Oc2ccc(Cl)cc2C1C(C#N)C(=O)OCC (stereo not shown) [SC-79]
Current of TMEM175 cells after enhancer, APC [1]: 305 ± 39%

CCCCC1(C2CCCC2)Cc2cc(OCCCC(=O)O)c(Cl)c(Cl)c2C1=O (stereo not shown) [DCPIB]
Off-target effect of DCPIB on control lysosomes (SURFE2R 96SE) ([2]; 20 µM and below): did not have an effect
Off-target effect of DCPIB on control lysosomes (SURFE2R 96SE) ([2]; 60 µM DCPIB, Figure S5): off-target inhibition

[Cl-].[Cl-].[Zn+2] [Zn, ZnCl2]
Off-target effect of zinc on control lysosomes (SURFE2R 96SE) ([2]; in-plate control, Figure S5): small off-target inhibition
